Data as given in US12606543B2, “Indole derivatives as serotonergic agents useful for the treatment of disorders related thereto” (priority 2023, dated 2026).
Read-outs that look alike come from different tables or passages of the source.

Legend:
[1] = molecular target: T1, human 5-hydroxytryptamine receptor 1A (5-HT1A) (Homo sapiens, UniProt P08908); experiment: Human 5-HT1A radioligand binding assay ([3H]-8-Hydroxy-DPAT)
T1 sequence (P08908 1-422): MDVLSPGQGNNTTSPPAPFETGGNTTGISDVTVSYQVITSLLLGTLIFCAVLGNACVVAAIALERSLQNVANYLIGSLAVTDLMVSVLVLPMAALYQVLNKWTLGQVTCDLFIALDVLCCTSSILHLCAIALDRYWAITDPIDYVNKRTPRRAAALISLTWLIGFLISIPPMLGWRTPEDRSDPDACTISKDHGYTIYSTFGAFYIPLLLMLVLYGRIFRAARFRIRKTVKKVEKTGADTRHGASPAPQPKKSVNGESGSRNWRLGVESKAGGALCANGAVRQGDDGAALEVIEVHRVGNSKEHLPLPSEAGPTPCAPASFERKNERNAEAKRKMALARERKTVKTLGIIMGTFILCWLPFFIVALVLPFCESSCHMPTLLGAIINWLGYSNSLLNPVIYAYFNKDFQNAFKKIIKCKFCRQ
Description: The objective of this study was to evaluate the binding properties of test compounds on 5-hydroxytryptamine receptor 1A (5-HT1A).
1. The assay buffer was prepared following Table 25 below.
2. 8 doses of reference and test compounds were prepared starting from 10 mM stock solution as required by 5-fold serial dilutions with 100% (v/v) DMSO.
3. UniFilter-96 GF/B plate was pretreated: • i. 50 μl/well of 0.5% (v/v) PEI was added to UniFilter-96 GF/B plates. The plates were sealed and incubated at 4° C. for 3 hrs. • ii. After incubation, the plates were washed 3 times with ice-cold wash buffer (50 mM Tris, pH7.4).
4. Assay plate was prepared: • i. Cell membrane was diluted with assay buffer and 100 μl/well was added to 96 round well plates to reach a concentration of 20 μg/well. • ii. 8 concentrations of reference or test compounds were prepared and 50 μl/well was added to 96 round deep well plates. • iii. [3H]-8-Hydroxy-DPAT was diluted with assay buffer to 2 nM (4× final concentration) and 50 μl/well was added to 96 round well plates.
5. The plate was centrifuged at 1000 rpm for 30 secs and then agitated at 600 rpm at room temperature for 5 min.
6. The plates were sealed and the plate was incubated at 27° C. for 90 min.
7. The incubation was stopped by vacuum filtration onto GF/B filter plates followed by 4 times washing with ice-cold wash buffer (50 mM Tris, pH7.4).
9. The filter plates were sealed and 40 μl/well of scintillation cocktail was added.
10. The plate was read by using a Microbeta^2 microplate counter.
1. For reference and test compounds, the results were expressed as % Inhibition, using the normalization equation: N=100−100×(U−C2)/(C1−C2), where U is the unknown value, C1 is the average of high controls, and C2 is the average of low controls.
2. The IC50 was determined by fitting percentage of inhibition as a […] of compound concentrations with Hill equation using XLfit.
1. The assay buffer was prepared following Table 55 below.
3. UniFilter-96 GF/B plate was pretreated: • i. 50 μL/well of 0.5% (v/v) PEI was added to UniFilter-96 GF/B plates. The plates were sealed and incubated at 4° C. for 3 hrs. • ii. After incubation, the plates were washed 3 times with ice-cold wash buffer (50 mM Tris, pH7.4).
4. Assay plate was prepared: • i. Cell membrane was diluted with assay buffer and 100 μl/well was added to 96 round well plates to reach a concentration of 20 μg/well. • ii. 8 concentrations of reference or test compounds were prepared and 50 μl/well was added to 96 round deep well plates. • iii. [3H]-8-Hydroxy-DPAT was diluted with assay buffer to 2 nM (4× final concentration) and 50 μL/well was added to 96 round well plates.

[2] = molecular target: human 5-HT2B receptor (Homo sapiens, UniProt P41595); experiment: Human 5-HT2B positive allosteric modulator (PAM) assay; assay type: cell-based; design: expressed in transfected cells; host or cells: HEK293; settings: for Emax (% of serotonin): PAM mode, agonist at EC20, relative to maximum response of serotonin
Chain of human 5-HT2B receptor (P41595 whole entry): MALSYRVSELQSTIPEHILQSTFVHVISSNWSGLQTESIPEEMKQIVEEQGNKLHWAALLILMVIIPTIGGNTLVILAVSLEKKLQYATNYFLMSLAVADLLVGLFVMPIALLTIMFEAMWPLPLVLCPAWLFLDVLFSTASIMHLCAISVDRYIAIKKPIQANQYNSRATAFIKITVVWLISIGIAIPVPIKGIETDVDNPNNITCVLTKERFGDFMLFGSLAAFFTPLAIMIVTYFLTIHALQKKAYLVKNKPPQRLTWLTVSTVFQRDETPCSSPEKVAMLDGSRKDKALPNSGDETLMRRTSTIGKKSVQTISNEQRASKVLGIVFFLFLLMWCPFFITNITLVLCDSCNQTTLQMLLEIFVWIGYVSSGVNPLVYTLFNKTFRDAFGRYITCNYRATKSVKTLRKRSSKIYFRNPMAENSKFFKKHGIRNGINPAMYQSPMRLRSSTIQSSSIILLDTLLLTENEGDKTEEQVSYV
Description: Compound potency (EC50) and efficacy (Max response) against the human 5-HT2B receptor in stably transfected HEK293 cells were determined in a GPCR cell-based assay.
(§1) For Positive Allosteric Modulator determination, cells were pre-incubated with sample followed by EC20 addition. Intermediate dilution of sample stocks were performed to generate 5× samples in assay buffer. 5 μL of 5× samples were added to cells and incubated at 37° C. for 10 mins. 5 μL of agonist at 6×EC20 concentration was added and cells were incubated at 37° C. for 120 mins. Final assay vehicle concentration was 1%. The results are expressed as percent efficacy relative to the maximum response of the control ligand (serotonin) in Table 14.
Compound potency (EC50) and efficacy (Max response) against the human 5-HT2B receptor in stably transfected HEK293 cells was determined in a GPCR cell-based assay.
as §1, with “sample stocks was performed to” for “sample stocks were performed to”, “added and the cells were” for “added and cells were”, “120 mins. The final assay vehicle” for “120 mins. Final assay vehicle”, “in Table 64.” for “in Table 14.”

[3] = PAM mode: pre-incubation with sample, then agonist at EC20, HEK293 cells, read-out: EC50

| SMILES | IC50 [1] [nM] | EC50 [2] [nM] | Emax (% of serotonin) ([2]; HEK293 cells) | EC50 [2, 3] [nM] |
| --- | --- | --- | --- | --- |
| CSc1ccc2[nH]cc(C[C@H]3CCCN3C)c2c1 [(R) I-1, (R)-3-((1-Methylpyrrolidin-2-yl)methyl)-5-(methylthio)-1H-indole] | 3 | > 10000 | 0 % of serotonin |  |
| [2H]C([2H])(c1c[nH]c2ccc(OCCCCCN3C(=O)C4CCCCC4C3=O)cc12)[C@H]1CCCN1C([2H])([2H])[2H] (mixture of isomers) [Rac (R) I-248] | 8.3 |  |  |  |
| COCCN1CCC[C@@H]1Cc1c[nH]c2ccc(OC)cc12 [(R) I-98, (R)-5-Methoxy-3-((1-(2-methoxyethyl)pyrrolidin-2-yl)methyl)-1H-indole] | 5 |  | 0 % of serotonin | > 10000 |
| [2H]C([2H])(c1c[nH]c2ccc(OCCCCCN3C(=O)c4ccccc4C3=O)cc12)[C@H]1CCCN1C([2H])([2H])[2H] [(R) I-245, (R)-2-(5-((3-((1-(Methyl-d3)pyrrolidin-2-yl)methyl-d2)-1H-indol-5-yl)oxy)pentyl)isoindoline-1,3-dione] | 5 |  | 0 % of serotonin | > 3330 |
| [2H]C([2H])(c1c[nH]c2ccc(OCCCCCN3C(=O)[C@H]4CCCC[C@H]4C3=O)cc12)[C@H]1CCCN1C([2H])([2H])[2H] [Cis (R) I-248, 2-(5-((3-(((R)-1-(Methyl-d3)pyrrolidin-2-yl)methyl-d2)-1H-indol-5-yl)oxy)pentyl)hexahydro-1H-isoindole-1,3(2H)-dione] |  |  | 7.97 % of serotonin | > 10000 |
| [2H]C([2H])(c1c[nH]c2ccc(OCCCCN3C(=O)c4ccccc4C3=O)cc12)[C@H]1CCCN1C([2H])([2H])[2H] [(R) I-244, (R)-2-(4-((3-((1-(Methyl-d3)pyrrolidin-2-yl)methyl-d2)-1H-indol-5-yl)oxy)butyl)isoindoline-1,3-dione] | 15 |  | 26.89 % of serotonin | 97.4 |
